{"source": "patent US10532075B2", "about": "“Use of a particular extract of propolis for combating the side effects of chemotherapy” (POLLENERGIE, priority 2014, dated 2020)", "key": {"[1]": {"experiment": "in-vivo side effects of chemotherapy: change in weight of the animals", "source_text": "(§1) Wistar rats of approximately 200 g were used during this in-vivo experiment, at a rate of 8 animals per group. […] The animals are sacrificed 21 days after the injection of the chemotherapy agent. The weight and the different parameters of the blood formula will be tracked in these animals on days D+1, D+6 and D+14 and D+21 post-chemotherapy injection. The contents of endogenic antioxidants (glutathione=GSH) and the hepatocytic lipid peroxidation (MDA) levels will be evaluated on D+21."}, "red blood cells": {"tested_on": "red blood cells", "experiment": "in-vivo side effects of chemotherapy: change in red blood cells", "source_text": "as §1"}, "white blood cells": {"tested_on": "white blood cells", "experiment": "in-vivo side effects of chemotherapy: change in white blood cells", "source_text": "as §1"}, "plasmatic creatinine": {"tested_on": "plasmatic creatinine", "experiment": "in-vivo side effects of chemotherapy: plasmatic creatinine", "source_text": "as §1"}, "[2]": {"tested_on": "plasmatic glutathione (GSH)", "experiment": "in-vivo side effects of chemotherapy: plasmatic glutathione", "source_text": "as §1\n(§2) The chemotherapy agents also have an impact on the primary intracellular antioxidant: glutathione (GSH) and on oxidative damage through the formation of diene conjugates, which is a reflection of the lipid peroxidation of the cellular membranes (the MDA) on the plasmatic level. These two measurements are complementary since normally a correct level of GSH makes it possible to maintain a relatively low level of MDA."}, "plasma MDA": {"tested_on": "plasma MDA", "experiment": "in-vivo side effects of chemotherapy: plasma MDA", "source_text": "as §1, §2"}, "[3]": {"tested_on": "Primary hepatocytes of rats", "experiment": "reversion of chemotherapy agent toxicity: hepatocyte cytolysis after propolis pretreatment, then tamoxifen", "type": "cell-based", "conditions": "tamoxifen alone", "description": "Primary hepatocytes of rats were sampled and inoculated into a 96-well plate. 24 hours after the inoculation, the hepatocytes were treated with different doses of propolis (Example 1) for 24 hours.\nThe percentage of hepatic cells that are cytolyzed after a pretreatment with different concentrations of propolis and then subjected to a cytotoxic concentration of tamoxifen (25 μM) was evaluated and presented in the table below: […]"}, "[4]": {"conditions": "chemotherapy agent alone, D + 1 post-injection"}, "[5]": {"conditions": "chemotherapy agent alone, D + 6 post-injection"}, "[6]": {"conditions": "chemotherapy agent alone, D + 14 post-injection"}, "[7]": {"conditions": "chemotherapy agent alone, D + 21 post-injection"}, "[8]": {"conditions": "chemotherapy agent alone, D − 5 (before treatment)"}, "[9]": {"conditions": "chemotherapy agent alone, 21st day post-injection"}, "[10]": {"conditions": "chemotherapy agent alone, 21st day"}}}
{"smiles": "CC(=O)O[C@@]12CO[C@@H]1C[C@H](O)[C@@]1(C)C(=O)[C@H](O)C3=C(C)[C@@H](OC(=O)[C@H](O)[C@@H](NC(=O)OC(C)(C)C)c4ccccc4)C[C@@](O)([C@@H](OC(=O)c4ccccc4)[C@H]21)C3(C)C", "note": "[Taxotere, taxotere]", "values": [{"measurement": "weight of the animals", "setting": "[1]; rat, in vivo", "value": 151.6}, {"measurement": "weight: Variation between D + 1 and D + 21", "setting": "[1]; rat, in vivo", "value": "+18.6"}, {"measurement": "red blood cells", "setting": "red blood cells; rat, in vivo", "value": "6.39 10^6/µL"}, {"measurement": "red blood cells: Variation between D + 1 and D + 21", "setting": "red blood cells; rat, in vivo", "value": "−52", "unit": "%"}, {"measurement": "reduction in red blood cells", "setting": "red blood cells; rat, in vivo", "value": 52, "unit": "%"}, {"measurement": "white blood cells", "setting": "white blood cells; rat, in vivo", "value": 6.44}, {"measurement": "white blood cells: Variation between D − 5 and D + 21", "setting": "white blood cells; rat, in vivo", "value": "−51", "unit": "%"}, {"measurement": "plasmatic creatinine", "setting": "plasmatic creatinine; rat, in vivo", "value": 7.60}, {"measurement": "plasmatic creatinine: Variation between D − 5 and D + 21", "setting": "plasmatic creatinine; rat, in vivo", "value": "+52%"}, {"measurement": "effect on the level of plasma GSH (in words)", "setting": "[2]; rat, in vivo", "value": "very distinct significant decrease in the level of plasma GSH"}, {"measurement": "plasmatic glutathione", "setting": "[2]; rat, in vivo", "value": 22.88}, {"measurement": "plasmatic glutathione: Variation between D − 5 and D + 21", "setting": "[2]; rat, in vivo", "value": "−26", "unit": "%"}, {"measurement": "plasma MDA", "setting": "plasma MDA; rat, in vivo", "value": 45.90}, {"measurement": "plasma MDA: Variation between D − 5 and D + 21", "setting": "plasma MDA; rat, in vivo", "value": "+88%"}]}
{"smiles": "O=P1(N(CCCl)CCCl)NCCCO1", "note": "(stereo not shown) [Cyclophosphamide, cyclophosphamide]", "values": [{"measurement": "weight: Variation between D + 1 and D + 21", "setting": "[1]; chemotherapy agent alone", "value": "−14.9"}, {"measurement": "weight of the animals", "setting": "[1]; [4]", "value": 167.2}, {"measurement": "weight of the animals", "setting": "[1]; [5]", "value": 157.7}, {"measurement": "weight of the animals", "setting": "[1]; [6]", "value": 164}, {"measurement": "weight of the animals", "setting": "[1]; [7]", "value": 152.3}, {"measurement": "weight of the animals", "setting": "[1]; [8]", "value": 160.4}, {"measurement": "red blood cells: Variation between D + 1 and D + 21", "setting": "red blood cells; chemotherapy agent alone", "value": "−46", "unit": "%"}, {"measurement": "reduction in red blood cells", "setting": "red blood cells; [9]", "value": 45, "unit": "%"}, {"measurement": "red blood cells", "setting": "red blood cells; [4]", "value": 5.94}, {"measurement": "red blood cells", "setting": "red blood cells; [5]", "value": 4.23}, {"measurement": "red blood cells", "setting": "red blood cells; [6]", "value": 3.80}, {"measurement": "red blood cells", "setting": "red blood cells; [7]", "value": 3.22}, {"measurement": "red blood cells", "setting": "red blood cells; [8]", "value": 6.51}, {"measurement": "white blood cells: Variation between D − 5 and D + 21", "setting": "white blood cells; chemotherapy agent alone", "value": "−49", "unit": "%"}, {"measurement": "white blood cells", "setting": "white blood cells; [4]", "value": 3.33}, {"measurement": "white blood cells", "setting": "white blood cells; [5]", "value": 2.96}, {"measurement": "white blood cells", "setting": "white blood cells; [6]", "value": 10.20}, {"measurement": "white blood cells", "setting": "white blood cells; [7]", "value": 3.19}, {"measurement": "white blood cells", "setting": "white blood cells; [8]", "value": 6.30}, {"measurement": "plasmatic creatinine: Variation between D − 5 and D + 21", "setting": "plasmatic creatinine; chemotherapy agent alone", "value": "+59%"}, {"measurement": "plasmatic creatinine", "setting": "plasmatic creatinine; [4]", "value": 7.25}, {"measurement": "plasmatic creatinine", "setting": "plasmatic creatinine; [7]", "value": 10.14}, {"measurement": "plasmatic creatinine", "setting": "plasmatic creatinine; [8]", "value": 6.38}, {"measurement": "plasmatic glutathione: Variation between D − 5 and D + 21", "setting": "[2]; chemotherapy agent alone", "value": "−10", "unit": "%"}, {"measurement": "effect on the level of plasma GSH (in words)", "setting": "[2]; [10]", "value": "a little less distinct"}, {"measurement": "plasmatic glutathione", "setting": "[2]; [7]", "value": 23.81}, {"measurement": "plasmatic glutathione", "setting": "[2]; [8]", "value": 26.39}, {"measurement": "plasma MDA: Variation between D − 5 and D + 21", "setting": "plasma MDA; chemotherapy agent alone", "value": "+48%"}, {"measurement": "plasma MDA", "setting": "plasma MDA; [7]", "value": 79.10}, {"measurement": "plasma MDA", "setting": "plasma MDA; [8]", "value": 43.78}]}
{"smiles": "COc1cccc2c1C(=O)c1c(O)c3c(c(O)c1C2=O)C[C@@](O)(C(=O)CO)C[C@@H]3O[C@H]1C[C@H](N)[C@@H](O)[C@H](C)O1", "note": "[Epirubicin, epirubicin]", "values": [{"measurement": "weight of the animals", "setting": "[1]; rat, in vivo", "value": 150.2}, {"measurement": "weight: Variation between D + 1 and D + 21", "setting": "[1]; rat, in vivo", "value": "−0.9"}, {"measurement": "red blood cells", "setting": "red blood cells; rat, in vivo", "value": "6.73 10^6/µL"}, {"measurement": "red blood cells: Variation between D + 1 and D + 21", "setting": "red blood cells; rat, in vivo", "value": "−48", "unit": "%"}, {"measurement": "reduction in red blood cells", "setting": "red blood cells; rat, in vivo", "value": 48, "unit": "%"}, {"measurement": "white blood cells", "setting": "white blood cells; rat, in vivo", "value": 6.79}, {"measurement": "white blood cells: Variation between D − 5 and D + 21", "setting": "white blood cells; rat, in vivo", "value": "−46", "unit": "%"}, {"measurement": "plasmatic creatinine: Variation between D − 5 and D + 21", "setting": "plasmatic creatinine; rat, in vivo", "value": "+60%"}, {"measurement": "effect on the level of plasma GSH (in words)", "setting": "[2]; rat, in vivo", "value": "very distinct significant decrease in the level of plasma GSH"}, {"measurement": "plasmatic glutathione", "setting": "[2]; rat, in vivo", "value": 23.86}, {"measurement": "plasmatic glutathione: Variation between D − 5 and D + 21", "setting": "[2]; rat, in vivo", "value": "−46", "unit": "%"}, {"measurement": "plasma MDA", "setting": "plasma MDA; rat, in vivo", "value": 46.61}, {"measurement": "plasma MDA: Variation between D − 5 and D + 21", "setting": "plasma MDA; rat, in vivo", "value": "+83%"}]}
{"smiles": "CC/C(=C(\\c1ccccc1)c1ccc(OCCN(C)C)cc1)c1ccccc1", "note": "[Tamoxifen, tamoxifen]", "values": [{"measurement": "cytolysis of hepatocytes (in words)", "setting": "[3]", "value": "dose-dependent cytolysis of hepatocytes"}]}
{"smiles": "O=c1[nH]cc(F)c(=O)[nH]1", "note": "[Powder 5-FU, 5-FU]", "values": [{"measurement": "weight: Variation between D + 1 and D + 21", "setting": "[1]; chemotherapy agent alone", "value": "−13.9"}, {"measurement": "weight of the animals", "setting": "[1]; [4]", "value": 157.6}, {"measurement": "weight of the animals", "setting": "[1]; [5]", "value": 153.7}, {"measurement": "weight of the animals", "setting": "[1]; [6]", "value": 147.9}, {"measurement": "weight of the animals", "setting": "[1]; [7]", "value": 143.7}, {"measurement": "weight of the animals", "setting": "[1]; [8]", "value": 153.5}, {"measurement": "red blood cells: Variation between D + 1 and D + 21", "setting": "red blood cells; chemotherapy agent alone", "value": "−55", "unit": "%"}, {"measurement": "reduction in red blood cells", "setting": "red blood cells; [9]", "value": 55, "unit": "%"}, {"measurement": "red blood cells", "setting": "red blood cells; [4]", "value": 6.56}, {"measurement": "red blood cells", "setting": "red blood cells; [5]", "value": 4.19}, {"measurement": "red blood cells", "setting": "red blood cells; [6]", "value": 3.05}, {"measurement": "red blood cells", "setting": "red blood cells; [7]", "value": 2.94}, {"measurement": "red blood cells", "setting": "red blood cells; [8]", "value": 6.51}, {"measurement": "white blood cells: Variation between D − 5 and D + 21", "setting": "white blood cells; chemotherapy agent alone", "value": "−40", "unit": "%"}, {"measurement": "white blood cells", "setting": "white blood cells; [4]", "value": 3.91}, {"measurement": "white blood cells", "setting": "white blood cells; [5]", "value": 2.74}, {"measurement": "white blood cells", "setting": "white blood cells; [6]", "value": 10.82}, {"measurement": "white blood cells", "setting": "white blood cells; [7]", "value": 3.86}, {"measurement": "white blood cells", "setting": "white blood cells; [8]", "value": 6.49}, {"measurement": "plasmatic creatinine: Variation between D − 5 and D + 21", "setting": "plasmatic creatinine; chemotherapy agent alone", "value": "+41%"}, {"measurement": "plasmatic creatinine", "setting": "plasmatic creatinine; [4]", "value": 9}, {"measurement": "plasmatic creatinine", "setting": "plasmatic creatinine; [7]", "value": 10.19}, {"measurement": "plasmatic creatinine", "setting": "plasmatic creatinine; [8]", "value": 7.25}, {"measurement": "plasmatic glutathione: Variation between D − 5 and D + 21", "setting": "[2]; chemotherapy agent alone", "value": "−20", "unit": "%"}, {"measurement": "effect on the level of plasma GSH (in words)", "setting": "[2]; [10]", "value": "very distinct significant decrease in the level of plasma GSH"}, {"measurement": "plasmatic glutathione", "setting": "[2]; [7]", "value": 17.65}, {"measurement": "plasmatic glutathione", "setting": "[2]; [8]", "value": 22.14}, {"measurement": "plasma MDA: Variation between D − 5 and D + 21", "setting": "plasma MDA; chemotherapy agent alone", "value": "+41%"}, {"measurement": "plasma MDA", "setting": "plasma MDA; [7]", "value": 62.85}, {"measurement": "plasma MDA", "setting": "plasma MDA; [8]", "value": 44.49}]}
